Results taken from patent US8987267B2, “2-substituted-8-alkyl-7-OXO-7,8-dihydropyrido[2,3-D]pyrimidine-6-carbonitriles and uses thereof in treating proliferative disorders” (Temple University—of the Commonwealth System of Higher …, priority 2010, dated 2015).

Legend:
Assay type in all cases: biochemical
[1] = target: T1, His-tagged full length ARK5 (Homo sapiens, UniProt O60285); experiment: ARK5 Kinase Assay (ARK5 Inhibition Assay); conditions: CHKtide substrate, 1 μM ATP
T1 construct: 20 ng His-tagged full length ARK5 (Invitrogen PV4127); His; purchased Invitrogen PV4127
T1 sequence (O60285 1-661): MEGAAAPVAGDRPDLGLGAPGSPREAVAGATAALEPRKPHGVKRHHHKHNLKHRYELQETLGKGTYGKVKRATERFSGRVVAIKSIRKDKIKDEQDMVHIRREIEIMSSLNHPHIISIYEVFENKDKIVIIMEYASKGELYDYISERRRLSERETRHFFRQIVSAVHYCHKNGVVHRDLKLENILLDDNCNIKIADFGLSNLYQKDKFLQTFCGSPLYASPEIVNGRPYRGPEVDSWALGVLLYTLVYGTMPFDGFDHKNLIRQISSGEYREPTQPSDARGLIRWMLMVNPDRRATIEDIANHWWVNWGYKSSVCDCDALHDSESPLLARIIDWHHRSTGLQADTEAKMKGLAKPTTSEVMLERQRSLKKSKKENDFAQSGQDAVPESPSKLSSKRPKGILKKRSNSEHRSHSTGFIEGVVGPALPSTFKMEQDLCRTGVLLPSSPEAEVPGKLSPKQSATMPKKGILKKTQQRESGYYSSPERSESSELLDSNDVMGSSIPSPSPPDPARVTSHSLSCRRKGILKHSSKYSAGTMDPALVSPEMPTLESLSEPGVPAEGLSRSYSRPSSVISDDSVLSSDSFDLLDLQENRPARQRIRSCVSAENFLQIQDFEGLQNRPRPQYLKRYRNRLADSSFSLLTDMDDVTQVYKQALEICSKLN
Protocol: 20 ng His-tagged full length ARK5 (Invitrogen PV4127), a protein kinase, was diluted into kinase buffer (25 mM HEPES pH 7.5, 10 mM MgCl2, 0.5 mM EGTA, 0.5 mM Na3V04, 5 mM β Glycerophosphate, 2.5 mM DTT, 0.01% Triton X-100) and incubated with the indicated concentration of a compound of Table 3 at room temperature for 30 minutes. The kinase reactions were then initiated by the addition of 1 μg (3.28 μM) CHKtide substrate peptide (Upstate 12-414), 1 μM ATP and 10 μCi γ^32 P-ATP. The reactions were incubated at 30° C. for 10 minutes.
Subsequently, the reactions were stopped by adding 3% phosphoric acid. A 10 μl aliquot was then transferred to an appropriate area of a p30 filtermat. The filtermat was allowed to dry for 20 minutes at room temperature and then washed three times with 75 mM phosphoric acid and twice with methanol. The filtermat was then dried for 20 minutes at room temperature. The filtermat was then exposed to X ray film or read in a scintillation counter. The scintillation counting values were plotted as function of log drug concentration using Prism 4 Graph pad software and IC50 values determined by plotting sigmoidal non-linear regression curves with variable slope.

FGR = FGR (Homo sapiens, UniProt P09769); experiment: Kinase inhibition panel; conditions: 10 μM ATP
Sequence of FGR (P09769 whole entry, species assumed): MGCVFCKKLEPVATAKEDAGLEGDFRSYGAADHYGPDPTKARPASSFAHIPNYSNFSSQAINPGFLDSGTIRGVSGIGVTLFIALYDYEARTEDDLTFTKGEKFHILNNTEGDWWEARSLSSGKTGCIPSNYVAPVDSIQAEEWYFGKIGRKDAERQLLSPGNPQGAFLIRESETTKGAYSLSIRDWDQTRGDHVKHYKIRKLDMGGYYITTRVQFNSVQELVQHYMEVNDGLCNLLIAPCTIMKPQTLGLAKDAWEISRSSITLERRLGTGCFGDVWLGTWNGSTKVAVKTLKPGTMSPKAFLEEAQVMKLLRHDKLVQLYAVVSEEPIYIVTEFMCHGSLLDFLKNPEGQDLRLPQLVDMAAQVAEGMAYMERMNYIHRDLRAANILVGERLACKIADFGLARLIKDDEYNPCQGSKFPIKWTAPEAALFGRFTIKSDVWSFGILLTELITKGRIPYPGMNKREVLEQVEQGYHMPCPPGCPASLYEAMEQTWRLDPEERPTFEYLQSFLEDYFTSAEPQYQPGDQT

FLT4NEGFR3 = FLT4NEGFR3 (Homo sapiens, UniProt P35916); experiment: Kinase inhibition panel; conditions: 10 μM ATP
Sequence of FLT4NEGFR3 (P35916 25-1363): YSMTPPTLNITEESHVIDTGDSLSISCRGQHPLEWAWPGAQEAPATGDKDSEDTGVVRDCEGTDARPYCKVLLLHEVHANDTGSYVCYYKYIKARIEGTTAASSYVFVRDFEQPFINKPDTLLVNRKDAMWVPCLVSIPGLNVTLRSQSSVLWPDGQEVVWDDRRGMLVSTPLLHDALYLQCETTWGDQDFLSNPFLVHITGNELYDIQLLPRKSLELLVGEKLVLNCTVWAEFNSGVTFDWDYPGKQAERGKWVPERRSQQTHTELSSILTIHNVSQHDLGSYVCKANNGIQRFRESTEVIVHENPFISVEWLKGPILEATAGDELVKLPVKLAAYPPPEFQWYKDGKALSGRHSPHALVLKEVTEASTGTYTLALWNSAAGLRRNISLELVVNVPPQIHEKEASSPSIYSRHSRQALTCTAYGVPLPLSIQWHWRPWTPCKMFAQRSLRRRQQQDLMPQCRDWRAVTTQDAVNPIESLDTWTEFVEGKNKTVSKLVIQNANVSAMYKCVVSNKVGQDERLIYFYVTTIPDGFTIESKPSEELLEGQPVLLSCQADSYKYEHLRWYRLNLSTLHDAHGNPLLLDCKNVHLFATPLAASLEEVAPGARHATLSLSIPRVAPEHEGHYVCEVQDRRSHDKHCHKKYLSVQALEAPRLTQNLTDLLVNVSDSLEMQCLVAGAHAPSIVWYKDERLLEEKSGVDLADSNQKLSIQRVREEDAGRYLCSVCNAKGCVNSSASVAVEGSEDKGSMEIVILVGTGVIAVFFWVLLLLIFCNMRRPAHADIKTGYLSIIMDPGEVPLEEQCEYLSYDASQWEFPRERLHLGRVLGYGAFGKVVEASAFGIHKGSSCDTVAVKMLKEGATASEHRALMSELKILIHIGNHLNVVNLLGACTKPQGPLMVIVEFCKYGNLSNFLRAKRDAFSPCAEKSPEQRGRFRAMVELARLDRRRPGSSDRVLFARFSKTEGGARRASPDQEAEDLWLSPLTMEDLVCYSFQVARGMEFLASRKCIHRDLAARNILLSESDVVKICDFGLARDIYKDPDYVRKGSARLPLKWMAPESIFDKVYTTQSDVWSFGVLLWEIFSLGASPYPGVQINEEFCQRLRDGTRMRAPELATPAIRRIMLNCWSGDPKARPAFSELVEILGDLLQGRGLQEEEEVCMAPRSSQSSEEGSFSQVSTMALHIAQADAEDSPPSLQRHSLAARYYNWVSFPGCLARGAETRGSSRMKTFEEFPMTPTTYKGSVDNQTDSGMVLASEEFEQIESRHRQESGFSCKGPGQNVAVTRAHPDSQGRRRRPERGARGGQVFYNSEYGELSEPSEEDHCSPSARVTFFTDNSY

TTK = TTK (Homo sapiens, UniProt P33981); experiment: Kinase inhibition panel; conditions: 10 μM ATP
Sequence of TTK (P33981 whole entry, species assumed): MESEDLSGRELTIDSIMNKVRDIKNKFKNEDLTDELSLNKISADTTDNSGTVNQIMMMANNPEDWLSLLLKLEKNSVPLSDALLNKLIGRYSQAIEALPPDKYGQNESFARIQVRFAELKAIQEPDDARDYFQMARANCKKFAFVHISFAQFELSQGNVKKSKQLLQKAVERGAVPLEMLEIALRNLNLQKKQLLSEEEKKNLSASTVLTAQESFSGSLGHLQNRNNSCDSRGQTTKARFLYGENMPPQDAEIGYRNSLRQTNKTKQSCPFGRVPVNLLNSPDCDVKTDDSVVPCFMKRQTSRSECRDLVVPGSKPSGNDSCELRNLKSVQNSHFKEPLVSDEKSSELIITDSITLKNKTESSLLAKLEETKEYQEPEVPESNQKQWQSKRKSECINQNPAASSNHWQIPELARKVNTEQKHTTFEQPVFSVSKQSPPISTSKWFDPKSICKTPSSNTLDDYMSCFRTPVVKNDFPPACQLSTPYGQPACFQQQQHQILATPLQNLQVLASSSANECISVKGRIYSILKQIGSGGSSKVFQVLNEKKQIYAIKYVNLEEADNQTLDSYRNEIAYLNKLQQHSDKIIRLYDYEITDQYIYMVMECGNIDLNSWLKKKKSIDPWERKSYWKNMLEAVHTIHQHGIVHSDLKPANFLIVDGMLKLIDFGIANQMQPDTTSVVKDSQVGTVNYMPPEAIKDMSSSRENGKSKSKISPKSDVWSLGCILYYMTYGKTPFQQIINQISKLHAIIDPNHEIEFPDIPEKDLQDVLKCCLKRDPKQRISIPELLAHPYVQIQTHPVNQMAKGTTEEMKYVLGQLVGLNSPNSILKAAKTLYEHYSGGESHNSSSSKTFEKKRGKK

c-Kit = c-Kit (Homo sapiens, UniProt P10721); experiment: Kinase inhibition panel; conditions: 10 μM ATP
Sequence of c-Kit (P10721 26-976): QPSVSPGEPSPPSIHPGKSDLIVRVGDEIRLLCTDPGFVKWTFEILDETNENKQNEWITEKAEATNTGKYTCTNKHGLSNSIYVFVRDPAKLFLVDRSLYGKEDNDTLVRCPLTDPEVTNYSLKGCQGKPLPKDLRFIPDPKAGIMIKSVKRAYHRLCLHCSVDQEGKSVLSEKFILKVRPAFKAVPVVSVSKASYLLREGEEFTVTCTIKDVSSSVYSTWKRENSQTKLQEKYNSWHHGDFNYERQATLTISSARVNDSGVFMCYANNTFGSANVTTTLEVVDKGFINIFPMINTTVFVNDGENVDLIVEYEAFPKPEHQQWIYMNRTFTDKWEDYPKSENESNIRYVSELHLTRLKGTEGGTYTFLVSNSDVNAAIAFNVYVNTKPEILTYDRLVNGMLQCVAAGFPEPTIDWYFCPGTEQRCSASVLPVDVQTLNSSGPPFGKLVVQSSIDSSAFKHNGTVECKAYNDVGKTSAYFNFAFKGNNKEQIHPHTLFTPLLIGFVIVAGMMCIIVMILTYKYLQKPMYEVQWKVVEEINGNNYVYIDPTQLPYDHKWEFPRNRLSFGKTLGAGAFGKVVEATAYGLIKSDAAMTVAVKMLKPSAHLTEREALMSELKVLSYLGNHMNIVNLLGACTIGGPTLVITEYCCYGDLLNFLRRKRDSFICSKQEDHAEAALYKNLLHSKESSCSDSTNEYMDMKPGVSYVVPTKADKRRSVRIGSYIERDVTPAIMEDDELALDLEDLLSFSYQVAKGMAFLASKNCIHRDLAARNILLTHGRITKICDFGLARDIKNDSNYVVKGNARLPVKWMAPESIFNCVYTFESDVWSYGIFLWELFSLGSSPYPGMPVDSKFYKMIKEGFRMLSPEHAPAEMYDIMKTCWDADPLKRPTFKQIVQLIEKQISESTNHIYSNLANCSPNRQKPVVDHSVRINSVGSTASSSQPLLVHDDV

PKCmu = PKCmu (Homo sapiens, UniProt Q15139); experiment: Kinase inhibition panel; conditions: 10 μM ATP
Sequence of PKCmu (Q15139 whole entry): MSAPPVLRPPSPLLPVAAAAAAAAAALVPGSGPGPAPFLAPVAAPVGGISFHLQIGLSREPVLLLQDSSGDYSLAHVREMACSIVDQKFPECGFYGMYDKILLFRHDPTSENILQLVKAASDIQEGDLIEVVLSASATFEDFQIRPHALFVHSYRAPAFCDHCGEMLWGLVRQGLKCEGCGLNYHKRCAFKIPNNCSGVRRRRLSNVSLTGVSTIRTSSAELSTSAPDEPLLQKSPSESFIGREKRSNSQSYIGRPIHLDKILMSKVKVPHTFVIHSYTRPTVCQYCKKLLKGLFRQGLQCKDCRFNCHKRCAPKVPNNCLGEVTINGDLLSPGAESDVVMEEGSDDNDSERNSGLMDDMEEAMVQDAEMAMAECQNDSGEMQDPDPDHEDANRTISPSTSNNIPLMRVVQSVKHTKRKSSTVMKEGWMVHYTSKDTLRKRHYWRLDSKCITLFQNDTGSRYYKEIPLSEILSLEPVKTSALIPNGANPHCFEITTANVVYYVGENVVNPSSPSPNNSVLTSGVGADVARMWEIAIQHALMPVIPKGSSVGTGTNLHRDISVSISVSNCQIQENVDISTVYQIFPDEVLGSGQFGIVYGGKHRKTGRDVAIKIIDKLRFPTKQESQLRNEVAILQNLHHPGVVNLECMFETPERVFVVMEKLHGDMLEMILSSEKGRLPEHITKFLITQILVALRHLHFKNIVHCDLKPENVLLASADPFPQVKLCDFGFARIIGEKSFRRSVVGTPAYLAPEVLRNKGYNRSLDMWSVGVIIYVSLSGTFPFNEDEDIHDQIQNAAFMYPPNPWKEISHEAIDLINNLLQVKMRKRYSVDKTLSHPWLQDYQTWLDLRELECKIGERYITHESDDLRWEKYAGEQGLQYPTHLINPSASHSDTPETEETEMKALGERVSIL

ARK5 = ARK5 (Homo sapiens, UniProt O60285); experiment: Kinase inhibition panel; conditions: 10 μM ATP

Structure (SMILES) | IC50 [1] [µM] | further results
CN1CCN(c2ccc(Nc3ncc4cc(S(C)(=O)=O)c(=O)n(C5CCCC5)c4n3)cc2)CC1 [Comp. Ex. 1, 8-cyclopentyl-2-((4-(4-methylpiperazin-1-yl)phenyl)amino)-6-(methylsulfonyl)pyrido[2,3-d]pyrimidin-7(8H)-one, reference compound] | > 10 | –
COc1ccc(Nc2ncc3ccc(=O)n(C4CCCC4)c3n2)c(OC)c1 [Comp. Ex. 5, 8-cyclopentyl-2-((2,4-dimethoxyphenyl)amino)pyrido[2,3-d]pyrimidin-7(8H)-one, reference compound] | > 5 | –
CC(=O)c1c(C)c2cnc(Nc3ccc(N4CCNCC4)cn3)nc2n(C2CCCC2)c1=O [PD0332991, reference compound] | – | IC50 (FGR): > 10 µM; IC50 (FLT4NEGFR3): > 10 µM; IC50 (TTK): 0.697 µM; IC50 (c-Kit): > 10 µM; IC50 (PKCmu): 0.127 µM; IC50 (ARK5): 3.39 µM
CN1CCN(c2ccc(Nc3ncc4cc(C#N)c(=O)n(C5CCCCC5)c4n3)cc2)CC1 [Compound 16, 8-cyclohexyl-2-((4-(4-methylpiperazin-1-yl)phenyl)amino)-7-oxo-7,8-dihydropyrido[2,3-d]pyrimidine-6-carbonitrile] | 0.0434 | –
COc1cc(Nc2ncc3cc(C#N)c(=O)n(C4CCCC4)c3n2)cc(OC)c1 [Compound 14, 8-cyclopentyl-2-((3,5-dimethoxyphenyl)amino)-7-oxo-7,8-dihydropyrido[2,3-d]pyrimidine-6-carbonitrile] | 0.075 | –
CN1CCN(c2ccc(Nc3ncc4cc(S(=O)(=O)c5ccc(Cl)cc5)c(=O)n(C5CCCC5)c4n3)cc2)CC1 [Comp. Ex. 2, 6-((4-chlorophenyl)sulfonyl)-8-cyclopentyl-2-((4-(4-methylpiperazin-1-yl)phenyl)amino)pyrido[2,3-d]pyrimidin-7(8H)-one, reference compound] | > 10 | –
COc1ccc(Nc2ncc3ccc(=O)n(C4CCCC4)c3n2)cc1OC [Comp. Ex. 4, 8-cyclopentyl-2-((3,4-dimethoxyphenyl)amino)pyrido[2,3-d]pyrimidin-7(8H)-one, reference compound] | > 1 | –
COc1cc(Nc2ncc3cc(C#N)c(=O)n(C4CCCC4)c3n2)cc(OC)c1OC [Compound 15, 8-cyclopentyl-7-oxo-2-((3,4,5-trimethoxyphenyl)amino)-7,8-dihydropyrido[2,3-d]pyrimidine-6-carbonitrile] | 0.0498 | –
N#Cc1cc2cnc(Nc3ccc(N4CCOCC4)cc3)nc2n(C2CCCC2)c1=O [Compound 13, 8-cyclopentyl-2-((4-morpholinophenyl)amino)-7-oxo-7,8-dihydropyrido[2,3-d]pyrimidine-6-carbonitrile] | 0.075 | –
